Test results taken from patent EP1897937A1, “Method of culturing NPCs” (NeuroProgen GmbH Leipzig, priority 2006, dated 2008).
Where two headings read alike, the source gives them in different places.

Tested on: hmNPCs
Test: Dopaminergic differentiation: counting of TH-positive cells by immunocytochemistry
Type: cell-based, human
Description: To determine long-term proliferation, hmNPCs were plated and expanded for 2 passages with or without addition of various agents (see below) to the custom expansion media containing the growth factors EGF and FGF2. Different fetal midbrain tissues were included in this study. At the end of the proliferation period, differentiation of hmNPCs was induced via replacement of expansion media with mitogen-free media containing 1% FCS, 5 µM forskoline (Sigma-Aldrich Chemie GmbH Munich, Germany), and 100 pg/ml IL-1β (Sigma). The differentiation and expansion media were supplemented with different drugs as appropriate. Prior to immunocytochemistry or protein extraction, hmNPCs were allowed to differentiate for 1 week. To determine short-term proliferation via Ki67 immunostaining, the cells were seeded into 24-well plates (70,000 cells/well) and left overnight to rest. P2 receptor agonists (ATP, UTP, ATP + UTP, ADP, ADPβS) were supplied daily for 5 consecutive days. Ki67/nestin double-positive cells were counted in 8 randomly selected fields of nucleotide-treated or untreated samples. For the assessment of MAPK phosphorylation the cells were kept free of mitogens for 2 d prior to addition of the MEK-inhibitor in expansion media. In addition, the MEK-inhibitor was added during the differentiation period 15 min before UTP administration.
UTP, UDP, ATP, ADP, ADPβS and suramin were purchased from Sigma (Sigma-Aldrich Chemie GmbH Munich, Germany). UTP and UDP were applied at different concentrations (1 µM, 10 µM, 100 µM), ATP at 100 µM, ADP at 100 µM, and ADPβS at100 µM. During expansion of the cells, the nucleotides were renewed once a week with every media change, unless otherwise stated. They were applied once at the beginning of the differentiation period. The P2 receptor antagonist suramin (10 µM) was added to expansion media 30 min prior to addition of UTP (100 µM). The stock solution of the MEK1/2 inhibitor U0126 (Promega Corporation, Mannheim, Germany) was prepared in dimethyl sulfoxide (DMSO) at a concentration of 10 mM. The stock solution was then diluted in 0.1 M PBS to obtain a concentration of 1 mM. MEK inhibitor (final concentration 10 µM) was added to mitogen-free expansion media, 15 min before UTP treatment (1 µM) of hmNPCs.
Expanded or one week differentiated hmNPCs were fixed with 4% paraformaldehyde in PBS for 10 min at room temperature and washed with PBS, counterstained with the DNA-binding dye 4'-6-Diamidino-2-phenylindole (DAPI, 2 µg/ml in PBS) for 15 min at room temperature, washed twice in PBS followed by incubation in blocking buffer (10% FCS, 0.2% Triton-X 100 in PBS, pH 7.2) for 30 min at room temperature. After incubation with a primary antibody (over night at 4°C in blocking buffer), the cells were incubated with fluorescent secondary antibodies, Alexa Fluor® 488 conjugate or Alexa Fluor® 594 conjugate (Molecular Probes, Eugene, USA). Cover-slips were mounted onto glass slides and examined under a fluorescence microscope (Zeiss Axiovert 200). Acquisition of the cells was performed using the Image-analysis software AxioVision 4 (Carl Zeiss AG, Jena, Germany). The following primary antibodies were used for immunofluorescence: rabbit polyclonal anti-β-tubulin III (anti-Tuj1) antibody, rabbit polyclonal anti-tyrosine hydroxylase antibody , mouse monoclonal anti-nestin antibody (Pharmingen, San Diego, CA, USA), rabbit polyclonal anti-Ki67 antigen antibody (Novocastra Laboratories Ltd, Newcastle upon Tyne, UK). Estimation of the TH-positive cell numbers was performed by counting of cells among approximately 1000 differentiated cells in total within 6 randomly selected fields.

In the case of `O=c1ccn([C@@H]2O[C@H](COP(=O)(O)OP(=O)(O)OP(=O)(O)O)[C@@H](O)[C@H]2O)c(=O)[nH]1` [UTP, uridine 5'-triphosphate], the “contribution of TH-immunopositive cells to the total of Tuj1-immunopositive cells” value (100 µM, 2 weeks of expansion followed by 1 week of differentiation) is reported as “increased”, the activity at 100 µM (Homo sapiens, 168 h, 100 µM each, once, only during the differentiation period of one week, read-out: number of TH-positive (dopaminergic) cells as compared to control) is reported as 239 ± 27% and the activity at 1 µM (Homo sapiens, 1 µM, 2 weeks of expansion and one week of differentiation, read-out: number of TH-positive cells) is reported as 211 ± 30%. For the same compound, the activity at 100 µM (Homo sapiens, 100 µM during proliferation and differentiation, read-out: number of TH-positive cells) was 267 ± 20%.
